From patent US4521538A (Medosan Industrie Biochimiche Riunite S.p.A., priority 1982, dated 1985)
Where two headings read alike, the source gives them in different places.

Legend:
[1] = Antipyretic activity, yeast-induced hyperthermia; format: in vivo, albino male Wistar rats
Source text: (§1) The composition that had been administered via the oral and/or parenteral route, was in suspension of 0.5% carboxymethylcellulose in neutral pH physiological saline solution.

[2] = Solubility; format: physicochemical
[3] = Antitussive activity (method of Y. Kase); format: in vivo, albino male Guinea-pigs
Protocol: The antitussive effect on albino male Guinea-pigs weighing 300 g was evaluated using the method described by Y. Kase (Selected Pharmacological Testing Methods, p. 363, Marcel Dekker Inc., New York, 1968).

[4] = format: in vivo, male Wistar rats; settings: for % incidence / 10 / gastric damage index / mean No. of lesions / mean severity: four days; for mean severity: scale 0 (no lesion) to 5 (perforations)
Protocol: Male Wistar rats weighing 180 g were randomized into groups of 10. Three doses of each compound were administered. One group received the vehicle alone (10 ml/kg b.w.). Each dose was given orally for four days consecutively and the rats were sacrificed on the fifth day for necropsy. The ulcerogenic effect was evaluated by the following scale:
(1) each haemorrhagic point at least 1 mm in diameter was scored as 1 lesion,
(2) haemorrhagic points less than 1 mm in diameter were scored in the following manner:
(c) 20 to 29=three lesions
(2) gastric mucosal irritation without haemorrhage: 1
(3) haemorrhagic points less than 1 mm in diameter: 2
(4) haemorrhagic points between 1 and 3 mm in diameter: 3
(5) haemorrhagic points larger than 3 mm in diameter: 4
By means of this scale it was possible to obtain the gastric damage index: [formula]

[5] = Analgesic activity, phenylquinone-induced writhing test; format: in vivo
Protocol: The inhibiting effect on the abdominal contractions induced by phenyl-p-quinone was calculated by the following formula: [formula]
Table II lists the doses, routes of administration and their efficacy expressed as percentage of protection.

[6] = tested on: healthy animals; assay: General observation of toxic effects in animals at the doses used
Source text: as §1

[7] = in vivo; settings: rat
[8] = Mucolytic activity in vitro, consistency of human expectoration
Protocol: The experiment was carried out "in vitro" according to the method of R. S. Hirsch (Bull. […] Table IV lists the percentage decrease of the expectoration consistency provoked by the compound of this invention in comparison with dithiothreitol and acetylcysteine which are known mucolytic agents.

[9] = in vivo; settings: mouse
[10] = Antiinflammatory activity, carrageenin-induced oedema test; format: in vivo, rats
Protocol: This effect was evaluated by means of an experimental model reproducing acute inflammation in rats: for this purpose the carrageenin-induced oedema test was employed following the method described by C. A. Winter (J. Pharmac. Exp. […] Wong, J. F. Gardocki and T. P. Pruss, J. Pharmac. Exp. Ther. 185 (1): 127, 1973). Table I lists the tested compounds, the concentration thereof, routes of administration and relative percentage oedema inhibitions; the data are commented upon at the end of the Tables.

COc1ccccc1OC(=O)Cc1ccc(C(=O)c2ccc(C)cc2)n1C [1-methyl-5-p-toluoylpyrrole-2-acetic acid guaiacyl ester]
% temperature decrease ([1]; 50 mg/kg i.p., 1 h): 18.0%
% temperature decrease ([1]; 50 mg/kg i.p., 2 h): 26.0%
% temperature decrease ([1]; 50 mg/kg i.p., 3 h): 39.0%
% temperature decrease ([1]; 50 mg/kg per os, 1 h): 16.0%
% temperature decrease ([1]; 50 mg/kg per os, 2 h): 20.0%
% temperature decrease ([1]; 50 mg/kg per os, 3 h): 33.0%
% temperature decrease ([1]; 75 mg/kg i.p., 1 h): 30.0%
% temperature decrease ([1]; 75 mg/kg i.p., 2 h): 35.0%
% temperature decrease ([1]; 75 mg/kg i.p., 3 h): 56.0%
% temperature decrease ([1]; 75 mg/kg per os, 1 h): 18.0%
% temperature decrease ([1]; 75 mg/kg per os, 2 h): 27.0%
% temperature decrease ([1]; 75 mg/kg per os, 3 h): 49.0%
% temperature decrease ([1]; 100 mg/kg i.p., 1 h): 42.0%
% temperature decrease ([1]; 100 mg/kg i.p., 2 h): 49.0%
% temperature decrease ([1]; 100 mg/kg i.p., 3 h): 58.0%
% temperature decrease ([1]; 100 mg/kg per os, 1 h): 29.0%
% temperature decrease ([1]; 100 mg/kg per os, 2 h): 35.0%
% temperature decrease ([1]; 100 mg/kg per os, 3 h): 50.0%
antithermic activity in words ([1]; oral and/or parenteral): considerable antithermic activity
Solubility [2]: soluble in the usual organic solvents
% inhibition, amplitude of coughs ([3]; 50 mg/kg i.p.): 18%
% inhibition, frequency of coughs ([3]; 50 mg/kg i.p.): 26%
% inhibition, amplitude of coughs ([3]; 50 mg/kg per os): 16%
% inhibition, frequency of coughs ([3]; 50 mg/kg per os): 22%
% inhibition, amplitude of coughs ([3]; 75 mg/kg i.p.): 25%
% inhibition, frequency of coughs ([3]; 75 mg/kg i.p.): 50%
% inhibition, amplitude of coughs ([3]; 75 mg/kg per os): 19%
% inhibition, frequency of coughs ([3]; 75 mg/kg per os): 45%
% inhibition, amplitude of coughs ([3]; 100 mg/kg i.p.): 40%
% inhibition, frequency of coughs ([3]; 100 mg/kg i.p.): 55%
% inhibition, amplitude of coughs ([3]; 100 mg/kg per os): 38%
% inhibition, frequency of coughs ([3]; 100 mg/kg per os): 56%
antitussive activity in words ([3]; in vivo tests): good mucolytic and antitussive activity
% incidence / 10 ([4]; 50 mg/kg orally): 7
gastric damage index ([4]; 50 mg/kg orally): 9
mean No. of lesions ([4]; 50 mg/kg orally): 1
mean severity ([4]; 50 mg/kg orally): 1
% incidence / 10 ([4]; 100 mg/kg orally): 8
gastric damage index ([4]; 100 mg/kg orally): 11
mean No. of lesions ([4]; 100 mg/kg orally): 1
mean severity ([4]; 100 mg/kg orally): 2
% incidence / 10 ([4]; 200 mg/kg orally): 8
gastric damage index ([4]; 200 mg/kg orally): 12
mean No. of lesions ([4]; 200 mg/kg orally): 2
mean severity ([4]; 200 mg/kg orally): 2
ulcerogenic effect in words ([4]; number of gastric lesions and their severity (Table VI)): moderate
gastrointestinal tolerability ([4]; rat, in vivo): perfectly tolerated by the gastrointestinal tract
% protection ([5]; 5 mg/kg i.p.): 30.0%
% protection ([5]; 5 mg/kg per os): 30.0%
% protection ([5]; 10 mg/kg i.p.): 62.5%
% protection ([5]; 10 mg/kg per os): 58.6%
% protection ([5]; 20 mg/kg i.p.): 78.0%
% protection ([5]; 20 mg/kg per os): 79.4%
analgesic action in words ([5]; oral and/or parenteral): marked analgesic action
death ([6]; healthy animals, doses and routes used in the experiments, long- or short-term treatments): did not provoke death
apparent signs of toxic effects ([6]; in vivo): nor apparent signs of toxic effects
significant toxic effects ([6]; in vivo): did not provoke significant toxic effects
therapeutical index ([6]; in vivo): high therapeutical index
LD50 ([7]; ip): 1180 mg/kg
LD50 ([7]; po): > 1500 mg/kg
% decrease of expectoration consistency ([8]; 1.0 M (9%), 12 experiments): 52%
mucolytic activity in words ([8]; described as in vivo tests): good mucolytic and antitussive activity
LD50 ([9]; ip): 1200 mg/kg
LD50 ([9]; po): > 1500 mg/kg
Oedema % inhibition ([10]; 25 mg/kg i.p., 2 h): 33.5%
Oedema % inhibition ([10]; 25 mg/kg i.p., 4 h): 30.0%
Oedema % inhibition ([10]; 25 mg/kg i.p., 6 h): 25.0%
Oedema % inhibition ([10]; 25 mg/kg i.p., 24 h): 7.0%
Oedema % inhibition ([10]; 25 mg/kg per os, 2 h): 27.0%
Oedema % inhibition ([10]; 25 mg/kg per os, 4 h): 29.0%
Oedema % inhibition ([10]; 25 mg/kg per os, 6 h): 28.0%
Oedema % inhibition ([10]; 25 mg/kg per os, 24 h): 3.2%
Oedema % inhibition ([10]; 50 mg/kg i.p., 2 h): 55.0%
Oedema % inhibition ([10]; 50 mg/kg i.p., 4 h): 51.6%
Oedema % inhibition ([10]; 50 mg/kg i.p., 6 h): 49.0%
Oedema % inhibition ([10]; 50 mg/kg i.p., 24 h): 9.2%
Oedema % inhibition ([10]; 50 mg/kg per os, 2 h): 49.0%
Oedema % inhibition ([10]; 50 mg/kg per os, 4 h): 53.0%
Oedema % inhibition ([10]; 50 mg/kg per os, 6 h): 51.0%
Oedema % inhibition ([10]; 50 mg/kg per os, 24 h): 5.3%
Oedema % inhibition ([10]; 100 mg/kg i.p., 2 h): 80.0%
Oedema % inhibition ([10]; 100 mg/kg i.p., 4 h): 78.0%
Oedema % inhibition ([10]; 100 mg/kg i.p., 6 h): 70.0%
Oedema % inhibition ([10]; 100 mg/kg i.p., 24 h): 9.5%
Oedema % inhibition ([10]; 100 mg/kg per os, 2 h): 71.6%
Oedema % inhibition ([10]; 100 mg/kg per os, 4 h): 77.8%
Oedema % inhibition ([10]; 100 mg/kg per os, 6 h): 77.0%
Oedema % inhibition ([10]; 100 mg/kg per os, 24 h): 7.2%
action against acute inflammation in words ([10]; oral and/or parenteral): inhibiting action against acute inflammation
